Measured values as given in ChEMBL document CHEMBL1649268, “Comparative in vitro activity profile of oritavancin against recent gram-positive clinical isolates” (2009).
Converted amounts (≈) assume the structure as drawn.

What was measured:
Type in all cases: functional
Streptococcus pneumoniae [1] = test: Antimicrobial activity against Streptococcus pneumoniae clinical isolates assessed as resistant isolates by broth microdilution method
Streptococcus pneumoniae [2] = test: Antimicrobial activity against penicillin-resistant Streptococcus pneumoniae clinical isolates by broth microdilution method
Streptococcus pneumoniae [3] = test: Antimicrobial activity against Streptococcus pneumoniae clinical isolates assessed as percent susceptible isolates by broth microdilution method
Streptococcus pneumoniae [4] = test: Antimicrobial activity against penicillin-resistant Streptococcus pneumoniae clinical isolates assessed as percent susceptible isolates by broth microdilution method
Streptococcus pneumoniae [5] = test: Antimicrobial activity against penicillin-intermediate Streptococcus pneumoniae clinical isolates by broth microdilution method
Streptococcus pneumoniae [6] = test: Antimicrobial activity against penicillin-intermediate Streptococcus pneumoniae clinical isolates assessed as resistant isolates by broth microdilution method
Streptococcus pneumoniae [7] = test: Antimicrobial activity against Streptococcus pneumoniae clinical isolates by broth microdilution method
Streptococcus pneumoniae [8] = test: Antimicrobial activity against penicillin-susceptible Streptococcus pneumoniae clinical isolates assessed as percent susceptible isolates by broth microdilution method
Streptococcus pneumoniae [9] = test: Antimicrobial activity against penicillin-intermediate Streptococcus pneumoniae clinical isolates assessed as percent susceptible isolates by broth microdilution method
Streptococcus pneumoniae [10] = test: Antimicrobial activity against penicillin-resistant Streptococcus pneumoniae clinical isolates assessed as resistant isolates by broth microdilution method
Streptococcus pneumoniae [11] = test: Antimicrobial activity against penicillin-susceptible Streptococcus pneumoniae clinical isolates assessed as resistant isolates by broth microdilution method
Streptococcus pneumoniae [12] = test: Antimicrobial activity against penicillin-susceptible Streptococcus pneumoniae clinical isolates by broth microdilution method
Enterococcus faecalis [13] = test: Antimicrobial activity against Enterococcus faecalis clinical isolates by broth microdilution method
Enterococcus faecium [14] = test: Antimicrobial activity against Enterococcus faecium expressing VanB gene clinical isolates assessed as resistant isolates by broth microdilution method
Enterococcus faecium [15] = test: Antimicrobial activity against vancomycin-nonsusceptible Enterococcus faecium clinical isolates assessed as resistant isolates by broth microdilution method
Enterococcus faecium [16] = test: Antimicrobial activity against Enterococcus faecium expressing VanB gene clinical isolates by broth microdilution method
Enterococcus faecalis [17] = test: Antimicrobial activity against Enterococcus faecalis expressing VanA gene clinical isolates assessed as resistant isolates by broth microdilution method
Enterococcus faecium [18] = test: Antimicrobial activity against vancomycin-susceptible Enterococcus faecium clinical isolates assessed as resistant isolates by broth microdilution method
Enterococcus faecium [19] = test: Antimicrobial activity against vancomycin-nonsusceptible Enterococcus faecium clinical isolates assessed as percent susceptible isolates by broth microdilution method
Enterococcus faecalis [20] = test: Antimicrobial activity against vancomycin-susceptible Enterococcus faecalis clinical isolates assessed as percent susceptible isolates by broth microdilution method
Enterococcus faecium [21] = test: Antimicrobial activity against Enterococcus faecium expressing VanB gene clinical isolates assessed as percent susceptible isolates by broth microdilution method
Enterococcus faecium [22] = test: Antimicrobial activity against Enterococcus faecium clinical isolates assessed as resistant isolates by broth microdilution method
Enterococcus faecalis [23] = test: Antimicrobial activity against Enterococcus faecalis clinical isolates assessed as resistant isolates by broth microdilution method
Enterococcus faecalis [24] = test: Antimicrobial activity against vancomycin-nonsusceptible Enterococcus faecalis clinical isolates by broth microdilution method
Enterococcus faecalis [25] = test: Antimicrobial activity against Enterococcus faecalis expressing VanA gene clinical isolates by broth microdilution method
Enterococcus faecalis [26] = test: Antimicrobial activity against Enterococcus faecalis expressing VanB gene clinical isolates assessed as percent susceptible isolates by broth microdilution method
Enterococcus faecium [27] = test: Antimicrobial activity against Enterococcus faecium expressing VanA gene clinical isolates assessed as resistant isolates by broth microdilution method
Enterococcus faecium [28] = test: Antimicrobial activity against vancomycin-nonsusceptible Enterococcus faecium clinical isolates by broth microdilution method
Enterococcus faecium [29] = test: Antimicrobial activity against vancomycin-susceptible Enterococcus faecium clinical isolates by broth microdilution method
Enterococcus faecalis [30] = test: Antimicrobial activity against vancomycin-nonsusceptible Enterococcus faecalis clinical isolates assessed as resistant isolates by broth microdilution method
Enterococcus faecalis [31] = test: Antimicrobial activity against Enterococcus faecalis expressing VanB gene clinical isolates by broth microdilution method
Enterococcus faecium [32] = test: Antimicrobial activity against Enterococcus faecium expressing VanA gene clinical isolates assessed as percent susceptible isolates by broth microdilution method
Enterococcus faecalis [33] = test: Antimicrobial activity against Enterococcus faecalis expressing VanA gene clinical isolates assessed as percent susceptible isolates by broth microdilution method
Enterococcus faecalis [34] = test: Antimicrobial activity against vancomycin-susceptible Enterococcus faecalis clinical isolates by broth microdilution method
Enterococcus faecalis [35] = test: Antimicrobial activity against vancomycin-nonsusceptible Enterococcus faecalis clinical isolates assessed as percent susceptible isolates by broth microdilution method
Enterococcus faecalis [36] = test: Antimicrobial activity against vancomycin-susceptible Enterococcus faecalis clinical isolates assessed as resistant isolates by broth microdilution method
Enterococcus faecium [37] = test: Antimicrobial activity against Enterococcus faecium clinical isolates assessed as percent susceptible isolates by broth microdilution method
Enterococcus faecium [38] = test: Antimicrobial activity against Enterococcus faecium expressing VanA gene clinical isolates by broth microdilution method
Enterococcus faecium [39] = test: Antimicrobial activity against Enterococcus faecium clinical isolates by broth microdilution method
Enterococcus faecalis [40] = test: Antimicrobial activity against Enterococcus faecalis expressing VanB gene clinical isolates assessed as resistant isolates by broth microdilution method
Enterococcus faecium [41] = test: Antimicrobial activity against vancomycin-susceptible Enterococcus faecium clinical isolates assessed as percent susceptible isolates by broth microdilution method
Enterococcus faecalis [42] = test: Antimicrobial activity against Enterococcus faecalis clinical isolates assessed as percent susceptible isolates by broth microdilution method

CO/N=C(\C(=O)N[C@@H]1C(=O)N2C(C(=O)O)=C(CSc3nc(=O)c(O)nn3C)CS[C@H]12)c1csc(N)n1 [CEFTRIAXONE]
Resistant isolates (Streptococcus pneumoniae [1]): 1.2%
MIC90 (Streptococcus pneumoniae [2]): 2 µg/mL (≈ 3.61 µM)
Activity (Streptococcus pneumoniae [3]): 97%
Activity (Streptococcus pneumoniae [4]): 80.4%
MIC90 (Streptococcus pneumoniae [5]): 0.5 µg/mL (≈ 0.902 µM)
Percent of isolates resistant (Streptococcus pneumoniae [6]): 0.5%
MIC90 (Streptococcus pneumoniae [7]): 1 µg/mL (≈ 1.8 µM)
Activity (Streptococcus pneumoniae [8]): 100%
Activity (Streptococcus pneumoniae [9]): 99.5%
Percent of isolates resistant (Streptococcus pneumoniae [10]): 7.4%
Percent of isolates resistant (Streptococcus pneumoniae [11]): 0%
MIC90 (Streptococcus pneumoniae [12]): 0.03 µg/mL (≈ 0.0541 µM)

CC[C@H]1OC(=O)[C@H](C)C(=O)[C@H](C)[C@@H](O[C@@H]2O[C@H](C)C[C@H](N(C)C)[C@H]2O)[C@](C)(OC)C[C@@H](C)C(=O)[C@H](C)[C@H]2N(CCCCn3cnc(-c4cccnc4)c3)C(=O)O[C@]12C [TELITHROMYCIN]
Resistant isolates (Streptococcus pneumoniae [1]): 0%
MIC90 (Streptococcus pneumoniae [2]): 0.5 µg/mL (≈ 0.616 µM)
Activity (Streptococcus pneumoniae [3]): 100%
MIC90 (Streptococcus pneumoniae [5]): 0.25 µg/mL (≈ 0.308 µM)
Percent of isolates resistant (Streptococcus pneumoniae [6]): 0%
MIC90 (Streptococcus pneumoniae [7]): 0.25 µg/mL (≈ 0.308 µM)
Activity (Streptococcus pneumoniae [8]): 100%
Activity (Streptococcus pneumoniae [9]): 100%
Percent of isolates resistant (Streptococcus pneumoniae [10]): 0%
Percent of isolates resistant (Streptococcus pneumoniae [11]): 0%
MIC90 (Streptococcus pneumoniae [12]): 0.015 µg/mL (≈ 0.0185 µM)

CC1(C)S[C@@H]2[C@H](NC(=O)[C@H](N)c3ccccc3)C(=O)N2[C@H]1C(=O)O [AMPICILLIN]
MIC90 (Enterococcus faecalis [13]): 1 µg/mL (≈ 2.86 µM)
Activity (Enterococcus faecium [14]): 96.6%
Activity (Enterococcus faecium [15]): 98.5%
MIC90 (Enterococcus faecium [16]): > 256 µg/mL
Activity (Enterococcus faecalis [17]): 0%
Activity (Enterococcus faecium [18]): 72.3%
Activity (Enterococcus faecium [19]): 1.5%
Activity (Enterococcus faecalis [20]): 99.9%
Activity (Enterococcus faecium [21]): 3.4%
Activity (Enterococcus faecium [22]): 87.3%
Activity (Enterococcus faecalis [23]): 0.1%
MIC90 (Enterococcus faecalis [24]): 2 µg/mL (≈ 5.72 µM)
MIC90 (Enterococcus faecalis [25]): 2 µg/mL (≈ 5.72 µM)
Activity (Enterococcus faecalis [26]): 100%
Activity (Enterococcus faecium [27]): 99%
MIC90 (Enterococcus faecium [28]): > 256 µg/mL
MIC90 (Enterococcus faecium [29]): 256 µg/mL (≈ 733 µM)
Activity (Enterococcus faecalis [30]): 0%
MIC90 (Enterococcus faecalis [31]): 2 µg/mL (≈ 5.72 µM)
Activity (Enterococcus faecium [32]): 1%
Activity (Enterococcus faecalis [33]): 100%
MIC90 (Enterococcus faecalis [34]): 1 µg/mL (≈ 2.86 µM)
Activity (Enterococcus faecalis [35]): 100%
Activity (Enterococcus faecalis [36]): 0.1%
Activity (Enterococcus faecium [37]): 12.7%
MIC90 (Enterococcus faecium [38]): > 256 µg/mL
MIC90 (Enterococcus faecium [39]): > 256 µg/mL
Activity (Enterococcus faecalis [40]): 0%
Activity (Enterococcus faecium [41]): 27.7%
Activity (Enterococcus faecalis [42]): 99.9%

CO/N=C(\C(=O)N[C@@H]1C(=O)N2C(C(=O)OC(C)OC(C)=O)=C(COC(N)=O)CS[C@H]12)c1ccco1 (stereo partly specified) [CEFUROXIME AXETIL]
Resistant isolates (Streptococcus pneumoniae [1]): 18.9%
MIC90 (Streptococcus pneumoniae [2]): > 4 µg/mL
Activity (Streptococcus pneumoniae [3]): 75.9%
Activity (Streptococcus pneumoniae [4]): 0%
MIC90 (Streptococcus pneumoniae [5]): 4 µg/mL (≈ 7.84 µM)
Percent of isolates resistant (Streptococcus pneumoniae [6]): 20.4%
MIC90 (Streptococcus pneumoniae [7]): 4 µg/mL (≈ 7.84 µM)
Activity (Streptococcus pneumoniae [8]): 100%
Activity (Streptococcus pneumoniae [9]): 56%
Percent of isolates resistant (Streptococcus pneumoniae [10]): 99.3%
Percent of isolates resistant (Streptococcus pneumoniae [11]): 0%
MIC (Streptococcus pneumoniae [12]): ≤ 0.12 µg/mL
MIC90 (Streptococcus pneumoniae [12]): ≤ 0.12 µg/mL
